Earlier results on one molecule are cited in US11793769B2, “Device with compositions for delivery to the lungs, the oral mucosa and the brain” (priority 2014, dated 2023).

Structures are written as SMILES.

For data set [1], the target named is cannabinoid type II receptor (CB2) (Homo sapiens, UniProt P34972). The conditions noted are these: compared with CB1.
Data set [2] has as its system paclitaxel-induced neuropathic pain. The conditions noted are these: without affecting the efficacy of the chemotherapy.
Data set [3] relates to animal models of anxiety and depression. To be noted: in vivo.

cannabinoid type II receptor (CB2), sequence (P34972 whole entry, species assumed): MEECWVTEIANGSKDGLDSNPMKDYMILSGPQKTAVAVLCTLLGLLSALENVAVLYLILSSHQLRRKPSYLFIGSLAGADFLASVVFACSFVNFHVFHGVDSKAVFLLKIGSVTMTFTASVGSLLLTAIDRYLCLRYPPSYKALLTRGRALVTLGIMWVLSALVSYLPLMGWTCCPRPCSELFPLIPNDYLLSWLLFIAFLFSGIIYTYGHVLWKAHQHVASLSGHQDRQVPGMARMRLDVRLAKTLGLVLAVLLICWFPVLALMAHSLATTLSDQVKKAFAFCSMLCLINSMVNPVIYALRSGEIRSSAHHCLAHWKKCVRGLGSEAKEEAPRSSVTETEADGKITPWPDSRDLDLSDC

As to `C=C(C)[C@@H]1CCC(C)=C[C@H]1c1c(O)cc(CCCCC)cc1O` [CBD, cannabidiol], in data set [1], the “affinity to CB2” value is “higher affinity”. Also, in data set [2], the “effect on paclitaxel-induced neuropathic pain” value is recorded as “inhibits paclitaxel-induced neuropathic pain”. Also, the “effects in animal models of anxiety and depression” value in data set [3] is “both anti-anxiety and antidepressant effects”.
